In ChEMBL document CHEMBL3769338, “Tricyclic phenothiazine and phenoselenazine derivatives as potential multi-targeting agents to treat Alzheimer's disease” (Medchemcomm, 2015):
Active and inactive are the calls of the source. The rule behind the calls is not given here.

Key:
Acetylcholinesterase = Acetylcholinesterase (Homo sapiens, UniProt P22303); experiment: Inhibition of human AChE using acetylthiocholine iodide as substrate preincubated for 5 mins followed by substrate addition measured after 60 to 300 sec by Ellman's method
Acetylcholinesterase, sequence (P22303 whole entry): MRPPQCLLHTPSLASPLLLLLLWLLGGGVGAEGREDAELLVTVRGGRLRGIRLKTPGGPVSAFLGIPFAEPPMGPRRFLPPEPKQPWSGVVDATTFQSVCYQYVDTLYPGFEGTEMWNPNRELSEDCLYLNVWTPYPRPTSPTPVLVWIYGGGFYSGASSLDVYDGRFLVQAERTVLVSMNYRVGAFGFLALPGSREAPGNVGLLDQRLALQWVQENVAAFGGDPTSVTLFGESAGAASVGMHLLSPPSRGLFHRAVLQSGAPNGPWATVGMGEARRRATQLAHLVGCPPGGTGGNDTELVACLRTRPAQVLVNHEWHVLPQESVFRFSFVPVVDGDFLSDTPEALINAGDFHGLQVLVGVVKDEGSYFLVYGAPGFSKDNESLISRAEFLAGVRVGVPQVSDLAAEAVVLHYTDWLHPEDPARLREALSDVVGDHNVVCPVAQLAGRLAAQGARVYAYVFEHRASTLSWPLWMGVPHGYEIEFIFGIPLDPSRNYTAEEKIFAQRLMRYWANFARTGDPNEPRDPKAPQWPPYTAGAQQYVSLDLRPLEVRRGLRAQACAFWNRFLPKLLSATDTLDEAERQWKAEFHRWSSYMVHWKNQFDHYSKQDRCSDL

Cholinesterase [1] = biological target: T1, Cholinesterase (Homo sapiens, UniProt P06276)
T1 sequence (P06276 whole entry): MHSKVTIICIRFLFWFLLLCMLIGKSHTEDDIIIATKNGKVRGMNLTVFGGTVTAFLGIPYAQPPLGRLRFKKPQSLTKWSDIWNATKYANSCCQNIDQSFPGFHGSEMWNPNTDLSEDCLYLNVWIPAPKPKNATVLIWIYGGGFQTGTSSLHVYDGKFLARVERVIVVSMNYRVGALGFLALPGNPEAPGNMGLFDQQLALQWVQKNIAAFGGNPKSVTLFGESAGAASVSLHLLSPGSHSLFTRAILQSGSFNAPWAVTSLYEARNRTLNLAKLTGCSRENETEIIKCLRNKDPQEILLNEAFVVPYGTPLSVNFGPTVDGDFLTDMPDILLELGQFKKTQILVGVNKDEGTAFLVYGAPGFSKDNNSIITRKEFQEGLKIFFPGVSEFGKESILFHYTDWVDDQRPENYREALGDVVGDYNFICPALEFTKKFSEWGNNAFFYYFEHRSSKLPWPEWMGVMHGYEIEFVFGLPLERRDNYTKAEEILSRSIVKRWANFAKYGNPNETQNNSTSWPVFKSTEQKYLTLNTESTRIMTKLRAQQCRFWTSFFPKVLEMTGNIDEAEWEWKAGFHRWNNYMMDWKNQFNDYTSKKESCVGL
Description: Inhibition of human BuChE using S-butyrylthiocholine iodide as substrate preincubated for 5 mins followed by substrate addition measured after 60 to 300 sec by Ellman's method

[2] = biological target: Amyloid-beta precursor protein (Homo sapiens) (UniProt P05067); experiment: Inhibition of amyloid beta (1-42) self-induced aggregation (unknown origin) at 5 uM measured every 5 mins for 16 hrs by thioflavin T fluorescence method relative to control
Amyloid-beta precursor protein (Homo sapiens), sequence (P05067 whole entry): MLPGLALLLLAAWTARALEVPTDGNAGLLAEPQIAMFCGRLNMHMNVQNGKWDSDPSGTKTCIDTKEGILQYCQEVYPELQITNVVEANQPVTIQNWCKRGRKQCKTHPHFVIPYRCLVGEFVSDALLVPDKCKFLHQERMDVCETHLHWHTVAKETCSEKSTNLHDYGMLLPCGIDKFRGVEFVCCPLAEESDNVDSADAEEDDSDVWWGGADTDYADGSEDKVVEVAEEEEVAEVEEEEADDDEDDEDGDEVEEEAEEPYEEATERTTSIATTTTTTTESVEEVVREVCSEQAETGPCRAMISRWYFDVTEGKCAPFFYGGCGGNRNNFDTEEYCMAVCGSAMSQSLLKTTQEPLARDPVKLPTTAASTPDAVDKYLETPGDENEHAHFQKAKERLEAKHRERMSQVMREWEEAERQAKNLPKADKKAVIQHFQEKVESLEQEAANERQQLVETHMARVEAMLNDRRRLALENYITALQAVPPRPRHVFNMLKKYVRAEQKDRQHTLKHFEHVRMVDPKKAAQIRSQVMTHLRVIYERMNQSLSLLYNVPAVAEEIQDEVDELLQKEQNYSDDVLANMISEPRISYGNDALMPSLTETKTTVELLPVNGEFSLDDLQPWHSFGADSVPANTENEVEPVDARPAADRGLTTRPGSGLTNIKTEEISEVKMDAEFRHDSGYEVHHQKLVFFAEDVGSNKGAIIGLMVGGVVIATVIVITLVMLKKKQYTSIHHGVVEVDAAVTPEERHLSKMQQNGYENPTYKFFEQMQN

[3] = biological target: Amyloid-beta precursor protein (Homo sapiens) (UniProt P05067); experiment: Inhibition of amyloid beta (1-42) self-induced aggregation (unknown origin) at 1 uM measured every 5 mins for 16 hrs by thioflavin T fluorescence method relative to control
[4] = Antioxidant activity assessed as DPPH free radical scavenging activity at 50 uM incubated for 60 mins in dark relative to control; type: physicochemical; conditions: 1 h
[5] = biological target: Amyloid-beta precursor protein (Homo sapiens) (UniProt P05067); experiment: Inhibition of amyloid beta (1-42) self-induced aggregation (unknown origin) at 10 uM measured every 5 mins for 16 hrs by thioflavin T fluorescence method relative to control
[6] = biological target: Amyloid-beta precursor protein (Homo sapiens) (UniProt P05067); experiment: Inhibition of amyloid beta (1-42) self-induced aggregation (unknown origin) at 25 uM measured every 5 mins for 16 hrs by thioflavin T fluorescence method relative to control
[7] = Cytotoxicity against human SH-SY5Y cells assessed as cell viability at 50 uM after 24 hrs by MTT assay relative to untreated control; type: cell-based; conditions: read-out: Activity
[8] = biological target: Amyloid-beta precursor protein (Homo sapiens) (UniProt P05067); experiment: Inhibition of amyloid beta (1-42) self-induced aggregation (unknown origin) measured every 5 mins for 16 hrs by thioflavin T fluorescence method
Cholinesterase [9] = biological target: T1, Cholinesterase; experiment: Potency index, ratio of galantamine IC50 to compound IC50 for inhibition of human BuChE

Row | Compound | IC50 (Acetylcholinesterase) | IC50 (Cholinesterase [1]) | inhibition [2] | inhibition [3] | inhibition (INH) [4] | inhibition [5] | inhibition [6] | viability at 24 h, 50 µM [7] | inhibition [8] | Ratio IC50 (Cholinesterase [9])
1 | COc1ccc(C(=O)N2c3ccccc3Sc3ccccc32)cc1 | 6.3 µM | 53 µM |  |  |  |  |  |  |  | 
2 | Clc1ccc2c(c1)Nc1ccccc1S2 | 7.4 µM | 19.2 µM | 22% | 10.3% | 76.4% | 33.7% | 60.8% | 63.3% |  | 
3 | COc1ccc(C(=O)N2c3ccccc3[Se]c3ccc(Cl)cc32)cc1 | 5.8 µM | 4.9 µM |  |  |  |  |  |  |  | 
4 | COc1ccc(C(=O)N2c3ccccc3[Se]c3ccc(Cl)cc32)cc1OC | 6.2 µM | 5.7 µM | 7.9% | 8.4% | 38.3% | 9.1% | 5.9% | 76% |  | 
5 | c1ccc2c(c1)Nc1ccccc1S2 [PHENOTHIAZINE] | 7.3 µM | 5.8 µM | 37.2% | 18.3% | 92.1% | 59.1% | 62% | 63.3% | Dose-dependent effect | 11
6 | O=C(CCc1ccccc1)N1c2ccccc2Sc2ccccc21 | 7.1 µM | 51 µM |  |  |  |  |  |  |  | 
7 | COc1cccc(C(=O)N2c3ccccc3[Se]c3ccccc32)c1 | 6.2 µM | 9.6 µM |  |  |  |  |  |  |  | 
8 | O=C(c1ccccc1)N1c2ccccc2[Se]c2ccccc21 | 5.4 µM | 22.7 µM |  |  |  |  |  |  |  | 
9 | O=S(=O)(O)c1cc(S(=O)(=O)O)c2c(/N=N/c3ccccc3)c(O)ccc2c1 |  |  | 20.4% | 8.6% |  | 31% | 57.2% |  |  | 
10 | Clc1ccc2c(c1)Nc1ccccc1[Se]2 | 6.3 µM | 4.7 µM | 18.5% | 14.5% | 73.2% | 25.1% | 45% | 43% |  | 
11 | O=C(CCc1ccccc1)N1c2ccccc2Sc2ccc(Cl)cc21 | 7.9 µM | 5 µM |  |  |  |  |  |  |  | 
12 | O=C(Cc1ccccc1)N1c2ccccc2Sc2ccc(Cl)cc21 | 7.5 µM | 3.6 µM |  |  |  |  |  |  |  | 
13 | c1ccc2c(c1)Nc1ccccc1[Se]2 | 5.6 µM | 3 µM | 24.1% | 16.3% | 84.4% | 30.7% | 45.6% | 76% | Dose-dependent effect | 22
14 | O=C(c1ccccc1)N1c2ccccc2Sc2ccc(Cl)cc21 | 9.9 µM | 9.3 µM |  |  |  |  |  |  |  | 
15 | COc1cccc(C(=O)N2c3ccccc3Sc3ccccc32)c1 | 6.2 µM | 25.5 µM |  |  |  |  |  |  |  | 
16 | COc1ccc(C(=O)N2c3ccccc3Sc3ccccc32)cc1OC | 5.8 µM | 45 µM | inactive | inactive | 44.3% | inactive | inactive | 63.3% |  | 

Row | Compound | IC50 (Acetylcholinesterase) | IC50 (Cholinesterase [1]) | inhibition [2] | inhibition [3] | inhibition (INH) [4] | inhibition [5] | inhibition [6] | viability at 24 h, 50 µM [7] | inhibition [8] | Ratio IC50 (Cholinesterase [9])
17 | O=C(Cc1ccccc1)N1c2ccccc2[Se]c2ccccc21 | 6.4 µM | 11 µM |  |  |  |  |  |  |  | 
18 | O=C(c1ccccc1)N1c2ccccc2[Se]c2ccc(Cl)cc21 | 6 µM | 3.8 µM |  |  |  |  |  |  |  | 
19 | COc1ccc(C(=O)N2c3ccccc3Sc3ccc(Cl)cc32)cc1OC | 6.4 µM | 32.6 µM | 4.5% | 6.2% | 46.5% | 6.5% | 5.9% | 63.3% |  | 
20 | COc1ccc(C(=O)N2c3ccccc3[Se]c3ccccc32)cc1 | 4.6 µM | 11.1 µM |  |  |  |  |  |  |  | 
21 | O=C(Cc1ccccc1)N1c2ccccc2Sc2ccccc21 | 7.4 µM | 38.3 µM |  |  |  |  |  |  |  | 
22 | O=c1c2ccccc2[se]n1-c1ccccc1 [EBSELEN] | 6.2 µM | 4.6 µM |  |  | 34.7% |  |  | 53.9% |  | 
23 | O=C(CCc1ccccc1)N1c2ccccc2[Se]c2ccc(Cl)cc21 | 6.3 µM | 40 µM |  |  |  |  |  |  |  | 
24 | COc1ccc(C(=O)N2c3ccccc3Sc3ccc(Cl)cc32)cc1 | 5.9 µM | 5.3 µM |  |  |  |  |  |  |  | 
25 | O=C(CCc1ccccc1)N1c2ccccc2[Se]c2ccccc21 | 6.7 µM | 38 µM |  |  |  |  |  |  |  | 
26 | COc1ccc(C(=O)N2c3ccccc3[Se]c3ccccc32)cc1OC | 5.1 µM | 9.1 µM | 5.7% | 6.3% | 39% | 8.7% | 11.1% | 76% |  | 
27 | Cc1c(C)c2c(c(C)c1O)CCC(C)(C(=O)O)O2 (configuration not stated) [TROLOX] |  |  |  |  | 99.2% |  |  |  |  | 
28 | O=C(c1ccccc1)N1c2ccccc2Sc2ccccc21 | 8 µM | > 100 µM |  |  |  |  |  |  |  | 
29 | COc1cccc(C(=O)N2c3ccccc3Sc3ccc(Cl)cc32)c1 | 4.6 µM | 30.8 µM |  |  |  |  |  |  |  | 
30 | COc1cccc(C(=O)N2c3ccccc3[Se]c3ccc(Cl)cc32)c1 | 5.9 µM | 19.3 µM |  |  |  |  |  |  |  | 
31 | O=C(Cc1ccccc1)N1c2ccccc2[Se]c2ccc(Cl)cc21 | 6.5 µM | 5 µM |  |  |  |  |  |  |  | 
